Data reported in patent publication US5374625A, “Adenine and guanine derivatives for the treatment of hepatitis virus infections” (priority 1990, dated 1994).
Values after ≈ are worked out from the molar mass of the structure shown.

Key:
[1] = tested on: Human Immonodeficiency Virus (HIV); experiment: Antiviral activity against HIV (HTLV-IIIB strain) in MT-4 cells, HIV antigen-positive cells by indirect immunofluorescence; format: cell-based, HTLV-IIIB strain of HIV; details: Human immunodeficiency virus 1, MT4, 96 h, 4 days
Protocol: Antiviral activity against Human Immonodeficiency Virus (HIV) belonging to RNA virus was examined by the following method: MT-4 cells […] in 0.5 ml of RPMI 1640 culture medium were seeded into 48-well plates, and 50 μl of test compounds were added to various concentrations. The cells were incubated at 37° C. for 2 hours in 5% (v/v) carbondioxide incubator. Then, 50 μl of the HTLV-IIIB strain of HIV (2.5×10^5 to 5×10^5 PFU/ml) was inoculated onto the cells. After 4 days, a part of the cells were applied onto a slide glass and immobilized with acetone. The percentages of HIV antigen-positive MT-4 cells were determined by indirect immunofluorescence assay. As the primary antibody, serum of AIDS patients was used. As the secondary antibody, FITC-labelled anti-human IgG was used.

[2] = tested on: Herpes simplex virus (HSV-1); experiment: Antiviral activity against Herpes simplex virus (HSV-1), CPE inhibition in Vero cells (Neutral Red); format: cell-based; details: Human alphaherpesvirus 1, 50% inhibition of CPE, about 72 hours
Protocol: Antiviral activity against Herpes simplex virus (HSV-1) which is a DNA virus was tested by the following method.
Vero cells (originated from kidney cells of African Green Monkey) were cultured in MEM medium supplemented with 10% fetal bovine serum. One hundred μl of cell suspension (200,000 cells/ml) was plated into 96 wells plates (COSTAR) and cultured for 24 hours so that the culture became confluent. The medium was drawn, and cells were infected with HSV-1 virus for one hour. After drawing the virus fluid, cells were cultured for about 72 hours in a fresh medium containing test samples. The survived cells were stained with Neutral Red solution and absorbance at a wavelength of 546 nm (A546) was measured to evaluate the cytopathic effect (CPE).
CPE inhibition (%) was calculated as follows: [formula] Sample concentration required for 50% inhibition of the CPE was calculated as IC50 (μg/ml).

hepatitis B virus (HBV) = experiment: Antiviral activity against hepatitis B virus (HBV), viral DNA synthesis inhibition in HB611 cells; format: cell-based; details: 360 h, drug concentration required for 50% inhibition of viral DNA synthesis, densitometry, read-out: Anti-HBV activity ID50
Protocol: Antiviral activity against hepatitis B virus (HBV) which is a DNA virus was tested by the following method.
The test was done by using a cell line, HB611, that was established by transfection and continuously produces HBV-like particles [Proc. Natl. Acad. Sci. USA, 84, 444-449, 1987]. HB611 cells were maintained in Dulbecco's modified Eagle medium (Gibco) supplemented with fetal bovine serum (Gibco), 100 μg/ml of streptomycin, […] of benzyl penicillin (Gibco) and 200 μg/ml of geneticin (Gibco) at 37° C. in 5% CO2 -95% air.
The cells were seeded in 24-well plate (Corning) at a density of 3×10^4 cells/well, using 1.0 ml of the medium. After 2 days of incubation, the medium was replaced with the same medium containing the test compound. The cells were incubated for a further 15 days, during which time the medium containing the drug was exchanged every three days. […]
The results which was autoradiographed were analyzed using a densitometric analyzer (Shimadzu, Chromatoscana S930).
To quantitatively evaluate the inhibitory activity of the compounds, there were measured the band areas S, D, D2 (S, D1 and D2 represent intracellular free HBV DNA derived from replicative intermediates) and I (represents chromosomally integrated HBV DNA) by densitometric analyzer, and calculated the inhibition percentage as follows: [formula] […]

Row | IC50 [1] | IC50 [2] | SMILES | also measured
1 | 55 µg/mL (≈ 188 µM) | – | Nc1ncnc2c1ncn2[C@@H]1C[C@H](CO)[C@@H](CO)C[C@H]1O [Example 13, 9-[(1R,2R,4S,5S)-4,5-Bis(hydroxymethyl)-2-hydroxycyclohexyl]-adenine] | –
2 | – | 45.9 µg/mL (≈ 148 µM) | Nc1nc2c(ncn2[C@@H]2C[C@H](CO)[C@@H](CO)C[C@H]2O)c(=O)[nH]1 [Example 18, 9-[(1R,2R,4S,5S)-4,5-Bis(hydroxymethyl)-2-hydroxycyclohexyl]-guanine] | –
3 | 4.5 µg/mL (≈ 16.2 µM) | – | Nc1ncnc2c1ncn2[C@H]1CC[C@H](CO)[C@@H](CO)C1 [Example 16, 9-[(1S,3S,4S)-3,4-Bis(hydroxymethyl)-cyclohexyl]-adenine] | –

Second part, the compound before the results:

Row | SMILES | IC50 [1] | IC50 [2] | also measured
4 | Nc1ncnc2c1ncn2[C@@H]1CC[C@H](CO)[C@H]1CO [Example 5, 9-[(1R,2R,3S)-2,3-Bis(hydroxymethyl)-1-cyclopentyl]-adenine] | – | – | IC50 (hepatitis B virus (HBV)): 0.24 µg/mL (≈ 0.912 µM)
5 | Nc1nc2c(ncn2[C@H]2CC[C@H](CO)[C@@H](CO)C2)c(=O)[nH]1 [Example 21, 9-[(1S,3S,4S)-3,4-Bis(hydroxymethyl)-cyclohexyl]-guanine] | – | 2.77 µg/mL (≈ 9.44 µM) | –
